In US10858688B2, “Observation method using binding and dissociation probe” (KYOTO UNIVERSITY, priority 2015, dated 2020):
Where no end group is shown, it is not given here.

Columns and labels:
microtubule [1] = experiment: Localization test of probe candidates (integrated SiMS images); format: cell-based, Xenopus laevis; parameters: key: “localization” is positive (P) when above criterion (1) is met; details: fixed, permeabilized XTC cell; lysate supernatant of EGFP fused probe; TIRF, 10000 frames
Procedure: (§1) HEK (Human embryonic kidney)-293F cells were transfected with a plasmid encoding a probe candidate protein tagged with FLAG-EGFP or 3×FLAG-EGFP. […] Centrifugal separation was performed on the lysate and the supernatant liquid was collected. In order to perform screening for a probe for IRIS, the binding capacity of a probe candidate in the supernatant liquid with respect to the structure of an XCT cell that was fixed with paraformaldehyde (PFA) and that received a permeabilization process was tested. The appearance and disappearance of single molecule speckles (Single-molecule speckles, SiMS) in the structure was tested. Screening was performed for a probe for IRIS in accordance with the following criteria:
(§2) (1) It is possible to confirm a distribution of target substances in the structure in an image resulting from adding SiMS images;
(§3) The localization test of the above (1), whose result is shown in table 1, was performed in the following procedures. First, the supernatant liquid of lysate of a cell that expressed each probe candidate was brought into contact with an XCT cell that was fixed on a coverglass and that received a permeabilization process. […] The obtained speckle images of 10000 frames were integrated so as to confirm whether or not a distribution of target substances in the cell (microtubule, intermediate filament, focal adhesion or actin filament) was able to be confirmed. When a distribution of a target substances was able to be confirmed, the result of the localization test was treated as P (positive).

microtubule [2] = experiment: IRIS image test (reconstruction image); format: cell-based, Xenopus laevis; parameters: key: “IRIS image” is positive (P) when above criterion (3) is met; details: reconstruction from 10000 frames with DAOSTORM
Procedure: (§4) […] It is possible to reconstruct an image of a target substance by integrating the central positions of the respective speckles. The IRIS image test of the above (3) whose result is described in table 1 was performed in the following procedures. By using all the speckle images of 10000 frames picked up in the localization test, the central point of a probe that has bound to a target in each frame of the speckle images was determined with nanometer accuracy by using DAOSTORM. By adding a large number of pieces of central point information in the fluorescence images of 10000 frames, a reconstruction image (observation image) was generated. Whether or not a distribution of a target molecule was able to be observed in that reconstruction image was determined, and when a distribution of a target molecule was observed, the result was treated as P (positive).

microtubule [3] = experiment: Measurement of binding half-life of probe-target complex; parameters: species or system Xenopus laevis; details: fixed XTC cell, single exponential fit
Excerpt: (§5) A probe and a target substance have the following binding characteristics. […] The above half-life herein is preferably a half-life of a probe-target complex formed by binding between a probe and a target substance in a case when a medium containing a probe and a sample containing a target substance that is to be observed are brought into contact under a condition for performing an imaging step. […] Measurement procedures for the half-life are as below. […] Ndissociation is a cumulative relative frequency of a probe that dissociated. A cumulative relative frequency is a ratio of the speckles that disappeared within a given period of time to the total number of measured speckles (i.e. probes) (i.e. probes that dissociated within a given period of time), and represents the total number as 1. Then, by fitting the above complementary cumulative relative frequency function with an exponent function, that half-life is calculated.
The measurement of binding half-life, whose result is shown in table 1, was performed in the following procedures. Speckle images of 10000 frames picked up in the localization test were used in order to measure a period of time between the appearance of a probe that has bound to a target in a speckle image and disappearance through dissociation in a semi-manual mode by using Speckle TrackerJ, an ImageJ plug-in. In case of for example picking up of images with an exposure time of 50 ms and at a frame rate of 20 Hz, it is assumed that a period of time between the appearance and disappearance of a speckle that is observed in only one of consecutive frames is 50 ms and a period of time between the appearance and disappearance of a speckle observed in only two consecutive frames is 100 ms. […] Ndissociation is a cumulative relative frequency of probes that dissociated. Then, by fitting the complementary cumulative relative frequency function with an exponent function, the half-life was calculated. However, the binding half-life with respect to an actin filament of Atto488-Lifeact was measured by using a method that is described in detail in the section for FIG. 9 in the Brief Description of the Drawings.

microtubule [4] = experiment: Washability test of probe candidates; format: cell-based, Xenopus laevis; parameters: key: “washability” is positive (P) when above criterion (2) is met; details: speckles equal to or less than about 10% after switching imaging solution 10 to 20 times
Procedure: (§6) (2) It is possible to wash and remove a probe after SiMS imaging (imaging step);
(§7) The […] of the above (2), whose result is shown in table 1, was performed in the following procedures. […] This switching of imaging solution was conducted slowly so that the observation position would not shift. Next, an imaging solution not containing a probe and not containing the active oxygen-scavenging mix was switched 10 to 20 times. After the switching, for confirmation, for an XCT cell sample in the observation chamber, speckle images of 10 frames were picked up under a similar condition to that of the localization test described in the previous paragraph, and when the number of speckles confirmed in the speckle images (i.e., the number of probes that had bound) became sufficiently smaller (equal to or less than about 10%) than the number of the speckles in the speckle images before the washing operation, washing was determined to be possible and the result was treated as P (positive).

microtubule [5] = experiment: Labeling patterns of microtubules in TIRF IRIS images; format: cell-based, Xenopus laevis; details: for labeling of microtubule plus end (tip): when EB1 existed (cold methanol-preprocessed cells)
Excerpt: FIG. 12 show labeling patterns of microtubules by a CLIP-170 fragment (amino acid residues 3-309 of sequence number 12), an APC fragment (amino acid residues 2536-2843 of sequence number 14), a MAP4 fragment (amino acid residues 1-908 of sequence number 4) and Tau isoform 3 (full length of sequence number 5). The patterns are different depending upon procedures for fixing cells. FIG. 12 (a) and FIG. 12 (b) show live-cell imaging during the fixation operation. In FIG. 12 (a), the accumulation of EB1-EGFP at the tips of microtubules disappeared in a process by 3.7% PFA and 0.5% Triton-X 100. In FIG. 12 (b), EB1-EGFP was fixed in a state in which it was accumulated at the tips of the microtubules in a process by cold methanol. […] With these probes, IRIS images of the entire microtubules were obtained. […] The microtubule tips were labeled strongly with a CLIP-170 fragment while they were weakly labeled with a MAP4 fragment and Tau isoform 3 (see merged images in the lower tier).
A plurality of IRIS probes for a microtubule and a focal adhesion visualized different sites of their structure bodies. […] The result corresponds to in-vitro data (document 26). Further, Paxillin and the Src fragment visualized different portions of focal adhesion (FIG. 13). Thus, IRIS can also be applied to mapping analysis of a site in which a plurality of protein fragments bind. Development of an IRIS probe that binds to a molecule in a specific state also makes it is possible to perform super-resolution mapping on the molecule in the specific state.

actin filament = details: document 10; cited from earlier work
focal adhesion [6] = experiment: Localization test of probe candidates (integrated SiMS images); format: cell-based, Xenopus laevis; parameters: key: “localization” is positive (P) when above criterion (1) is met; details: fixed, permeabilized XTC cell; lysate supernatant of EGFP fused probe; TIRF, 10000 frames
Procedure: as §1, §2, §3

focal adhesion [7] = experiment: Measurement of binding half-life of probe-target complex; parameters: species or system Xenopus laevis; details: fixed XTC cell, single exponential fit
Excerpt: as §5
The measurement of binding half-life, whose result is shown in table 1, was performed in the following procedures. […] Then, by fitting the complementary cumulative relative frequency function with an exponent function, the half-life was calculated. However, the binding half-life with respect to an actin filament of Atto488-Lifeact was measured by using a method that is described in detail in the section for FIG. 9 in the Brief Description of the Drawings.

focal adhesion [8] = experiment: IRIS image test (reconstruction image); format: cell-based, Xenopus laevis; parameters: key: “IRIS image” is positive (P) when above criterion (3) is met; details: reconstruction from 10000 frames with DAOSTORM
Procedure: as §4

focal adhesion [9] = experiment: Washability test of probe candidates; format: cell-based, Xenopus laevis; parameters: key: “washability” is positive (P) when above criterion (2) is met; details: speckles equal to or less than about 10% after switching imaging solution 10 to 20 times
Procedure: as §6, §7

| Substance | LOCALIZATION (microtubule [1]) | IRIS IMAGE (microtubule [2]) | HALF-LIFE (microtubule [3]) | WASHABILITY (microtubule [4]) | labeling of microtubule (microtubule [5]; when EB1 did not exist (PFA and Triton-X 100)) | labeling of microtubule plus end (tip) (microtubule [5]) | time of being exchanged on an actin filament (actin filament) | LOCALIZATION (focal adhesion [6]) | HALF-LIFE (focal adhesion [7]) | IRIS IMAGE (focal adhesion [8]) | WASHABILITY (focal adhesion [9]) |
| --- | --- | --- | --- | --- | --- | --- | --- | --- | --- | --- | --- |
| APC 2536-2843: EGFP fused (C terminus) human APC fragment, amino acid residues 2536-2843 of sequence number 14 | P | P | 0.1 s | P | – | – | – | – | – | – | – |
| APC 2781-2819: EGFP fused (N terminus) human APC fragment, amino acid residues 2781-2819 of sequence number 14 ({EGFP}-VTPFNYNPSPRKSSADSTSARPSQIPTPVNNNTKKRDSK; UniProt P25054 2781-2819, looked up, fragment) | P | P | 0.027 s | P | – | – | – | – | – | – | – |
| CLIP-170: EGFP fused (N terminus) rat CLIP-170 fragment, amino acid residues 3-309 of sequence number 12 | P | P | 0.044 s | P | continuously labeled the entire microtubule | strongly labeled | – | – | – | – | – |
| Lifeact: widely used actin marker; short peptide that stains an actin filament in a live cell or a fixed cell (document 10) (MGVADLIKKFESISKEE) | – | – | – | – | – | – | ≤ 0.4 s | – | – | – | – |
| MAP4 1-908: EGFP fused (N terminus) mouse MAP4 fragment, amino acid residues 1-908 of sequence number 4 | P | P | 0.109 s | P | – | weakly visualized | – | – | – | – | – |
| Paxillin 1-557: EGFP fused (N terminus) human Paxillin, full length 1-557 of sequence number 15 | – | – | – | – | – | – | – | P | 0.196 s | P | P |
| Paxillin 54-557: EGFP fused (N terminus) human Paxillin fragment, residues 54-557 of sequence number 15 | – | – | – | – | – | – | – | P | 0.246 s | P | P |
| TAU ISOFORM 3: EGFP fused (N terminus) human Tau isoform 3, full length 1-383 of sequence number 5 | P | P | 0.11 s | P | – | weakly visualized | – | – | – | – | – |
| TAU ISOFORM 4: EGFP fused (N terminus) human Tau isoform 4, 1-352 of sequence number 6 | P | P | 0.06 s | P | – | – | – | – | – | – | – |
